Data as given in PMC2248166, “Quantitative peptide binding motifs for 19 human and mouse MHC class I molecules derived using positional scanning combinatorial peptide libraries” (Immunome Research, 2008).
Where a SMILES comes first, the peptide text is derived from it.

biological target: HLA A*3201 (Homo sapiens, UniProt P04439, A270S/D101S/D185E/E176V/E277Q/F133L/G103R/G107R/G231S/H175R/I121M/I218V/I322F/K168Q/L105A/L300P/L318F/M331R/P208A/P217A/Q94H/R106L/R138Q/S129P/T104I/T323A/T345S/V100E/V321M/V358M); assay: biochemical; assay type: binding

Structure (SMILES) | IC50
CC[C@H](C)[C@H](NC(=O)[C@H](CO)NC(=O)[C@H](CCC(N)=O)NC(=O)[C@H](CCC(N)=O)NC(=O)[C@H](CC(C)C)NC(=O)[C@H](Cc1ccccc1)NC(=O)[C@H](CC(C)C)NC(=O)[C@@H](NC(=O)[C@@H](N)CCCCN)C(C)C)C(=O)O [3102.0312] (H-KVLFLQQSI-OH) | 0.7 nM
CC[C@H](C)[C@H](NC(=O)[C@@H](N)CO)C(=O)N[C@@H](Cc1ccc(O)cc1)C(=O)NCC(=O)N[C@@H](Cc1ccccc1)C(=O)NCC(=O)N[C@H](C(=O)N[C@H](C(=O)N[C@@H](Cc1ccccc1)C(=O)O)[C@@H](C)O)C(C)C [3102.0314] (H-SIYGFGVTF-OH) | 0.11 nM
CSCC[C@H](NC(=O)[C@H](CCCCN)NC(=O)[C@H](CC(N)=O)NC(=O)[C@H](CC(C)C)NC(=O)[C@@H](N)CCCCN)C(=O)N[C@H](C(=O)N[C@H](C(=O)N[C@@H](CCC(=O)O)C(=O)N[C@@H](CC(C)C)C(=O)O)C(C)C)[C@@H](C)O [3102.0316] (H-KLNKMTVEL-OH) | 1.7 nM
CC[C@H](C)[C@H](NC(=O)[C@@H](NC(=O)[C@@H](NC(=O)[C@H](Cc1ccccc1)NC(=O)[C@H](Cc1ccccc1)NC(=O)[C@@H](NC(=O)[C@H](CC(C)C)NC(=O)[C@@H](NC(=O)[C@@H](N)CO)[C@@H](C)O)[C@@H](C)CC)C(C)C)[C@@H](C)CC)C(=O)O [3102.0317] (H-STLIFFVII-OH) | 18 nM
CC(C)[C@H](NC(=O)CNC(=O)[C@H](Cc1ccc(O)cc1)NC(=O)[C@@H](NC(=O)[C@@H](N)CCCNC(=N)N)[C@@H](C)O)C(=O)N[C@@H](CC(N)=O)C(=O)N[C@@H](Cc1ccc(O)cc1)C(=O)N[C@H](C(=O)N[C@@H](Cc1ccccc1)C(=O)O)[C@@H](C)O [3102.0318] (H-RTYGVNYTF-OH) | 0.26 nM
CC[C@H](C)[C@H](NC(=O)[C@H](C)NC(=O)[C@H](CC(N)=O)NC(=O)[C@@H](NC(=O)[C@@H]1CCCN1C(=O)[C@H](CCC(=O)O)NC(=O)[C@@H](NC(=O)[C@H](CC(C)C)NC(=O)[C@@H](N)CCCCN)[C@@H](C)CC)C(C)C)C(=O)O [3102.0321] (H-KLIEPVNAI-OH) | 11 nM
CC[C@H](C)[C@H](NC(=O)[C@H](CCC(=O)O)NC(=O)[C@H](Cc1ccccc1)NC(=O)[C@H](CO)NC(=O)[C@@H](N)CCCNC(=N)N)C(=O)N[C@H](C(=O)N[C@@H](CC(N)=O)C(=O)N[C@H](C(=O)N[C@@H](CC(C)C)C(=O)O)C(C)C)[C@@H](C)CC [3102.0322] (H-RSFEIINVL-OH) | 2.9 nM
CC[C@H](C)[C@H](NC(=O)[C@H](CCCNC(=N)N)NC(=O)[C@H](CCC(N)=O)NC(=O)[C@H](C)NC(=O)[C@@H](NC(=O)[C@H](CC(N)=O)NC(=O)[C@H](Cc1ccccc1)NC(=O)[C@H](CC(C)C)NC(=O)[C@@H](N)CCCCN)[C@@H](C)CC)C(=O)O [3102.0323] (H-KLFNIAQRI-OH) | 1.6 nM
CC[C@H](C)[C@H](NC(=O)[C@H](CC(N)=O)NC(=O)[C@H](CC(C)C)NC(=O)[C@@H](NC(=O)[C@@H](N)C(C)C)[C@@H](C)O)C(=O)N[C@@H](CO)C(=O)N[C@@H](CO)C(=O)N[C@@H](CCCCN)C(=O)N[C@@H](Cc1ccccc1)C(=O)O [3102.0324] (H-VTLNISSKF-OH) | 11 nM
CC[C@H](C)[C@H](N)C(=O)N[C@H](C(=O)N[C@@H](CC(N)=O)C(=O)N[C@@H](CCCCN)C(=O)N[C@@H](Cc1ccccc1)C(=O)N[C@@H](Cc1ccccc1)C(=O)N[C@@H](CCC(=O)O)C(=O)N[C@H](C(=O)N[C@H](C(=O)O)[C@@H](C)CC)C(C)C)[C@@H](C)CC [3102.0325] (H-IINKFFEVI-OH) | 11 nM
CC[C@H](C)[C@H](NC(=O)[C@H](CC(C)C)NC(=O)[C@H](C)NC(=O)[C@@H](NC(=O)[C@H](C)N)[C@@H](C)O)C(=O)N[C@@H](CC(C)C)C(=O)N[C@H](C(=O)N[C@@H](CO)C(=O)N[C@@H](Cc1ccccc1)C(=O)O)C(C)C [3102.0327] (H-ATALILVSF-OH) | 1.4 nM
CC[C@H](C)[C@H](NC(=O)[C@@H](NC(=O)[C@H](CC(C)C)NC(=O)[C@H](CC(C)C)NC(=O)[C@H](CC(C)C)NC(=O)[C@H](CO)NC(=O)[C@H](Cc1ccccc1)NC(=O)[C@H](CC(C)C)NC(=O)[C@@H](N)CO)C(C)C)C(=O)O [3102.0328] (H-SLFSLLLVI-OH) | 28 nM
CC[C@H](C)[C@H](NC(=O)[C@@H](NC(=O)[C@@H](NC(=O)[C@H](Cc1c[nH]cn1)NC(=O)[C@H](CC(C)C)NC(=O)[C@H](CCSC)NC(=O)[C@H](CC(N)=O)NC(=O)[C@H](CCC(N)=O)NC(=O)[C@@H](N)CCCCN)C(C)C)[C@@H](C)CC)C(=O)O [3102.0329] (H-KQNMLHVII-OH) | 2.1 nM
CC[C@H](C)[C@H](NC(=O)[C@H](CO)NC(=O)[C@@H](NC(=O)[C@H](C)NC(=O)[C@@H](NC(=O)[C@H](CC(C)C)NC(=O)[C@H](CC(C)C)NC(=O)[C@@H](NC(=O)[C@@H](N)CCCCN)[C@@H](C)CC)C(C)C)C(C)C)C(=O)O [3102.0330] (H-KILLVAVSI-OH) | 1.5 nM
CC[C@H](C)[C@H](NC(=O)[C@H](CC(C)C)NC(=O)[C@H](CC(C)C)NC(=O)[C@@H](NC(=O)[C@H](Cc1ccccc1)NC(=O)[C@H](CO)NC(=O)[C@H](CC(N)=O)NC(=O)[C@@H](NC(=O)[C@@H](N)CO)C(C)C)[C@@H](C)O)C(=O)O [3102.0331] (H-SVNSFTLLI-OH) | 2.6 nM
CC(C)C[C@H](NC(=O)[C@H](Cc1ccccc1)NC(=O)[C@H](CO)NC(=O)[C@H](CC(C)C)NC(=O)[C@@H](N)CCCCN)C(=O)N[C@@H](CO)C(=O)N[C@@H](CCCNC(=N)N)C(=O)N[C@H](C(=O)N[C@@H](Cc1ccccc1)C(=O)O)C(C)C [3102.0332] (H-KLSFLSRVF-OH) | 2.2 nM
CC[C@H](C)[C@H](N)C(=O)N[C@H](C(=O)N[C@@H](CO)C(=O)N[C@H](C(=O)N[C@H](C(=O)N[C@@H](CO)C(=O)N[C@@H](CC(C)C)C(=O)N[C@H](C(=O)N[C@H](C(=O)O)[C@@H](C)CC)C(C)C)[C@@H](C)CC)C(C)C)[C@@H](C)CC [3102.0334] (H-IISVISLVI-OH) | 47 nM
CC[C@H](C)[C@H](NC(=O)[C@H](CCCCN)NC(=O)[C@H](CCC(N)=O)NC(=O)[C@H](C)NC(=O)[C@@H](NC(=O)CNC(=O)[C@H](Cc1ccc(O)cc1)NC(=O)[C@H](CC(C)C)NC(=O)[C@@H](N)CCSC)[C@@H](C)CC)C(=O)O [3102.0335] (H-MLYGIAQKI-OH) | 12 nM
CC[C@H](C)[C@H](NC(=O)[C@@H](NC(=O)[C@@H](NC(=O)[C@@H](NC(=O)[C@@H](NC(=O)[C@@H](NC(=O)[C@H](CC(N)=O)NC(=O)[C@@H](NC(=O)[C@@H](N)C(C)C)[C@@H](C)O)C(C)C)[C@@H](C)CC)[C@@H](C)CC)[C@@H](C)CC)C(C)C)C(=O)O [3102.0336] (H-VTNVIIIVI-OH) | 14 nM
CC[C@H](C)[C@H](NC(=O)[C@@H](NC(=O)[C@H](CC(C)C)NC(=O)[C@@H](NC(=O)[C@H](CCCNC(=N)N)NC(=O)[C@H](CC(N)=O)NC(=O)[C@@H](NC(=O)[C@@H](NC(=O)CN)[C@@H](C)O)[C@@H](C)CC)[C@@H](C)CC)C(C)C)C(=O)O [3102.0337] (H-GTINRILVI-OH) | 15 nM
CC[C@H](C)[C@H](N)C(=O)N[C@H](C(=O)N[C@@H](CC(C)C)C(=O)N[C@@H](Cc1c[nH]cn1)C(=O)N[C@@H](CC(C)C)C(=O)N[C@@H](C)C(=O)N[C@@H](CS)C(=O)NCC(=O)N[C@@H](Cc1ccccc1)C(=O)O)[C@@H](C)O [3102.0338] (H-ITLHLACGF-OH) | 1.4 nM
CSCC[C@H](N)C(=O)N[C@H](C(=O)N[C@@H](CS)C(=O)NCC(=O)N[C@@H](CCC(N)=O)C(=O)N1CCC[C@H]1C(=O)N[C@@H](CC(C)C)C(=O)N[C@@H](CO)C(=O)N[C@@H](CC(C)C)C(=O)O)[C@@H](C)O [3102.0339] (H-MTCGQPLSL-OH) | 5.6 nM
CC[C@H](C)[C@H](NC(=O)[C@H](CC(C)C)NC(=O)[C@H](Cc1c[nH]cn1)NC(=O)[C@H](Cc1ccccc1)NC(=O)[C@H](CC(N)=O)NC(=O)[C@H](Cc1ccccc1)NC(=O)[C@@H](NC(=O)[C@@H](NC(=O)[C@@H](N)CCCNC(=N)N)[C@@H](C)O)[C@@H](C)CC)C(=O)O [3102.0342] (H-RTIFNFHLI-OH) | 2.1 nM
CC(C)C[C@H](NC(=O)[C@H](CC(N)=O)NC(=O)[C@H](Cc1ccc(O)cc1)NC(=O)[C@H](Cc1ccc(O)cc1)NC(=O)[C@@H](NC(=O)[C@H](Cc1ccc(O)cc1)NC(=O)[C@H](Cc1ccccc1)NC(=O)[C@H](CC(C)C)NC(=O)[C@@H](N)CCCCN)C(C)C)C(=O)O [3102.0343] (H-KLFYVYYNL-OH) | 0.34 nM
CC[C@H](C)[C@H](NC(=O)[C@H](CC(N)=O)NC(=O)[C@@H](NC(=O)[C@@H](NC(=O)[C@H](Cc1ccccc1)NC(=O)[C@@H](NC(=O)[C@H](C)NC(=O)[C@H](CC(C)C)NC(=O)[C@H](C)N)[C@@H](C)O)[C@@H](C)O)C(C)C)C(=O)O [3102.0344] (H-ALATFTVNI-OH) | 6.1 nM
CC[C@H](C)[C@H](NC(=O)[C@@H](NC(=O)[C@H](Cc1ccc(O)cc1)NC(=O)[C@H](CO)NC(=O)[C@@H](N)CCCCN)[C@@H](C)O)C(=O)N[C@@H](CCCNC(=N)N)C(=O)N[C@H](C(=O)N[C@@H](Cc1ccccc1)C(=O)N[C@@H](Cc1ccccc1)C(=O)O)C(C)C [3102.0345] (H-KSYTIRVFF-OH) | 1.1 nM
CC[C@H](C)[C@H](N)C(=O)N[C@H](C(=O)N[C@@H](Cc1ccccc1)C(=O)N[C@@H](CC(=O)O)C(=O)N[C@H](C(=O)N[C@@H](Cc1ccc(O)cc1)C(=O)N[C@@H](Cc1ccccc1)C(=O)N[C@@H](C)C(=O)N[C@H](C(=O)O)[C@@H](C)CC)[C@@H](C)CC)[C@@H](C)CC [3102.0346] (H-IIFDIYFAI-OH) | 0.93 nM
CSCC[C@H](NC(=O)[C@H](Cc1ccc(O)cc1)NC(=O)[C@H](Cc1ccccc1)NC(=O)[C@H](CC(C)C)NC(=O)[C@@H](N)CCSC)C(=O)N[C@@H](CC(=O)O)C(=O)N[C@@H](CC(C)C)C(=O)N[C@@H](CO)C(=O)N[C@@H](Cc1ccc(O)cc1)C(=O)O [3102.0347] (H-MLFYMDLSY-OH) | 1.2 nM
CC[C@H](C)[C@H](NC(=O)[C@H](Cc1c[nH]cn1)NC(=O)[C@@H](NC(=O)[C@H](CO)NC(=O)[C@@H](NC(=O)[C@H](C)NC(=O)[C@H](CO)NC(=O)[C@H](CC(C)C)NC(=O)[C@@H](N)CO)C(C)C)C(C)C)C(=O)O [3102.0349] (H-SLSAVSVHI-OH) | 34 nM
